Data from US8802688B2, “Substituted acetyl-coa carboxylase inhibitors” (Pfizer Inc., priority 2011, dated 2014).

Tests used:
[1] = molecular target: T1, recombinant human ACC2 (rhACC2) (Homo sapiens, UniProt O00763, V2141I); assay: recombinant hACC2 Transcreener ADP detection FP assay; format: biochemical; conditions: 50 μM ATP, 30 μM acetyl-CoA
T1 construct: a full length Cytomax clone of ACC2 was purchased from Cambridge Bioscience Limited; made in house; host or cells: CHO cells, tetracycline-induced (PcDNA5 FRT TO-TOPO)
T1 sequence (O00763 whole entry V2141I): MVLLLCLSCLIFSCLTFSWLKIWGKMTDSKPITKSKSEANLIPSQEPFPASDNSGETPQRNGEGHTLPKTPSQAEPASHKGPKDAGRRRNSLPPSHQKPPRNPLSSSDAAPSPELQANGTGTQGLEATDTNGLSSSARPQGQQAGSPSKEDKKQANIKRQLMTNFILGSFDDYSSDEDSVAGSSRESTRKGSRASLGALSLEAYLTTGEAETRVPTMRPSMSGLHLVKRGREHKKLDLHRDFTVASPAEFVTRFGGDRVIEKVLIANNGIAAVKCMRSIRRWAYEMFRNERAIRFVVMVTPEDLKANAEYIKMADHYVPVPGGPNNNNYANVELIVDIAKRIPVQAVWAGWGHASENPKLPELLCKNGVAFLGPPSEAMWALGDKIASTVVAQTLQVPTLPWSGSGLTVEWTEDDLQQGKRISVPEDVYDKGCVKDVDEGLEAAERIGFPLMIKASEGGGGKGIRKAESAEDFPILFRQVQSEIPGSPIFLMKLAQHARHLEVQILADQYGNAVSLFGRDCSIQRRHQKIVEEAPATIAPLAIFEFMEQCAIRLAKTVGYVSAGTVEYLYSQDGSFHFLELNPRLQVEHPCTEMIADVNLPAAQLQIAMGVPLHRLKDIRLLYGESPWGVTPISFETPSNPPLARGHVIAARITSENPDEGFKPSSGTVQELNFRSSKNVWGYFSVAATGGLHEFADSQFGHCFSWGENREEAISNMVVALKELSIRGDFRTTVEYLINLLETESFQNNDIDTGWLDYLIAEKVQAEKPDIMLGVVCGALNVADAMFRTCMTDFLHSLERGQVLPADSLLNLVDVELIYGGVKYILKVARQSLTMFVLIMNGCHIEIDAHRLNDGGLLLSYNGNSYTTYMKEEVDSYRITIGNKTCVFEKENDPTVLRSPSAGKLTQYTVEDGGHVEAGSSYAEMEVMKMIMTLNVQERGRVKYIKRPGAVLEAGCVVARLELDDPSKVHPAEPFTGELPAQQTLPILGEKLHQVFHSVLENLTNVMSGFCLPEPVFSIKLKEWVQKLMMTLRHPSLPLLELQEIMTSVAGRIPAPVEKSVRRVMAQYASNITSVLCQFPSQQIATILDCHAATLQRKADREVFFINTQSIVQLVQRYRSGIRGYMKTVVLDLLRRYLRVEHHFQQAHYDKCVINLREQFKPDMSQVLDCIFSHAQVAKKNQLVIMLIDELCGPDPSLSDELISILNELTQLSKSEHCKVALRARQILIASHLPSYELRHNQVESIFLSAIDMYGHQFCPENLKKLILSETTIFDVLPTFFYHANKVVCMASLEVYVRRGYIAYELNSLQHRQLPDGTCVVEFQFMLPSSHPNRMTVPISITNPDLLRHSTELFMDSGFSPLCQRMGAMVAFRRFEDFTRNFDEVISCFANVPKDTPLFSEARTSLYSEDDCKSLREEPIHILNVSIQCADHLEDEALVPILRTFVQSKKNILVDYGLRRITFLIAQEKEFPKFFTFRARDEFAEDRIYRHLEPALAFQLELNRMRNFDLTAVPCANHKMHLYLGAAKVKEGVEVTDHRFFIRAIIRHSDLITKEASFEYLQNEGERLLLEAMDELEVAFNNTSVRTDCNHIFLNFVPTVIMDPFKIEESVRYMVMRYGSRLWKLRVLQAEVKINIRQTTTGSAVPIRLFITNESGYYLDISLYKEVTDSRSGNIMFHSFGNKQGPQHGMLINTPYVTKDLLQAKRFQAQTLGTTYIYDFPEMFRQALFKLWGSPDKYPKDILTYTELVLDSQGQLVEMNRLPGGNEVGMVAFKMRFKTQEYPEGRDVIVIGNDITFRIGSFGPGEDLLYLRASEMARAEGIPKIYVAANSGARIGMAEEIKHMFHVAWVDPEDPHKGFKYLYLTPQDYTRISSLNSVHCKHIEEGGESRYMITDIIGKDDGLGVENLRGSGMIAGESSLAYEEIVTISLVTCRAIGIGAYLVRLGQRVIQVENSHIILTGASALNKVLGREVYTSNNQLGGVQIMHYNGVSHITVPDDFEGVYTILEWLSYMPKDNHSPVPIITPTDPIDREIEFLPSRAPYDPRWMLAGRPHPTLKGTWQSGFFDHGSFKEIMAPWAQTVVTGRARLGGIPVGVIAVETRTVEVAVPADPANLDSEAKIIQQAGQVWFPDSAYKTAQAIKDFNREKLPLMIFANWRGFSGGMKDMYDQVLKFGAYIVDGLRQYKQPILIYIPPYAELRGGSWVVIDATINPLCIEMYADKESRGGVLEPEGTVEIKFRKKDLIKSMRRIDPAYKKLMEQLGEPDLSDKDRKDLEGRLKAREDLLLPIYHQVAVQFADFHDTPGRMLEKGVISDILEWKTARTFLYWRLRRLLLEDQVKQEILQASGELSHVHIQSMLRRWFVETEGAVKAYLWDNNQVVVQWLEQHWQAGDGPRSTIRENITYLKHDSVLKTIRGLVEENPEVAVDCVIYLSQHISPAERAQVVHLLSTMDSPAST
Description: (§1) For example direct inhibition of ACC activity, for the compound of Formula (I) was determined using preparations of recombinant human ACC1 (rhACC1) and recombinant human ACC2 (rhACC2). Representative sequences of the recombinant human ACC1 and ACC2 that can be used in the assay are provided herein as SEQ ID NO. 1 and SEQ. ID NO. 2, respectively.
[3] Preparation of rhACC2. Human ACC2 inhibition was measured using purified recombinant human ACC2 (hrACC2). Briefly, a full length Cytomax clone of ACC2 was purchased from Cambridge Bioscience Limited and was sequenced and subcloned into PcDNA5 FRT TO-TOPO (Invitrogen, Carlsbad, Calif.). The ACC2 was expressed in CHO cells by tetracycline induction and harvested in 5 liters of DMEM/F12 with glutamine, biotin, hygromycin and blasticidin with 1 μg/mL tetracycline (Invitrogen, Carlsbad, Calif.). The conditioned medium containing ACC2 was then applied to a Softlink Soft Release Avidin column (Promega, Madison, Wis.) and eluted with 5 mM biotin. 4 mgs of ACC2 were eluted at a concentration of 0.05 mg/mL (determined by A280) with an estimated purity of 95% ([…]). The purified ACC2 was dialyzed in 50 mM Tris, 200 mM NaCl, 4 mM DTT, 2 mM EDTA, and 5% glycerol. The pooled protein was frozen and stored at −80° C., with no loss of activity upon thawing. For measurement of ACC2 activity and assessment of ACC2 inhibition, test compounds were dissolved in DMSO and added to the rhACC2 enzyme as a 5× stock with a final DMSO concentration of 1%.
[4] Measurement of human ACC2 inhibition. hACC2 was assayed in a Costar #3676 (Costar, Cambridge, Mass.) 384-well plate using the Transcreener ADP detection FP assay kit (Bellbrook Labs, Madison, Wis.) using the manufacturer's recommended conditions for a 50 uM ATP reaction. The final conditions for the assay were 50 mM HEPES, pH 7.2, 5 mM MgCl2, 5 mM tripotassium citrate, 2 mM DTT, 0.1 mg/mL BSA, 30 μM acetyl-CoA, 50 μM ATP, and 8 mM KHCO3. Typically, a 10 μl reaction was run for 50 min at 25° C., and 10 μl of Transcreener stop and detect buffer was added and the combination incubated at room temp for an additional 1 hour. The data was acquired on an Envision Fluorescence reader (Perkinelmer) using a 620 excitation Cy5 FP general dual mirror, 620 excitation Cy5 FP filter, 688 emission (S) and a 688 (P) emission filter.
(§2) The results using the recombinant hACC1 and recombinant hACC2 Transcreener assays described above are summarized in the table below for the Compounds of Formula (I) exemplified in the Examples above.

[2] = molecular target: T2, recombinant human ACC1 (rhACC1) (Homo sapiens, UniProt Q13085, DEL44-44); assay: recombinant hACC1 Transcreener ADP detection FP assay; format: biochemical; conditions: 50 μM ATP, 30 μM acetyl-CoA
T2 construct: recombinant baculovirus containing full length human ACC1 cDNA; made in house; host or cells: SF9 insect cells, recombinant baculovirus
Description: as §1
[1] Preparation of rhACC1. Two liters of SF9 cells, infected with recombinant baculovirus containing full length human ACC1 cDNA, were suspended in ice-cold lysis buffer (25 mM Tris, pH 7.5; 150 mM NaCl; 10% glycerol; 5 mM imidazole (EMD Bioscience; Gibbstown, N.J.); 2 mM TCEP (BioVectra; Charlottetown, Canada); Benzonase nuclease (10000 U/100 g cell paste; Novagen; Madison, Wis.); EDTA-free protease inhibitor cocktail (1 tab/50 mL; Roche Diagnostics; Mannheim, Germany). Cells were lysed by 3 cycles of freeze-thaw and centrifuged at 40,000×g for 40 minutes (4° C.). Supernatant was directly loaded onto a HisTrap FF crude column (GE Healthcare; Piscataway, N.J.) and eluted with an imidazole gradient up to 0.5 M over 20 column volumes (CV). ACC1-containing fractions were pooled and diluted 1:5 with 25 mM Tris, pH 7.5, 2 mM TCEP, 10% glycerol and direct loaded onto a CaptoQ (GE Healthcare) column and eluted with an NaCl gradient up to 1 M over 20 CV's. Phosphate groups were removed from purified ACC1 by incubation with lambda phosphatase (100 U/10 μM target protein; New England Biolabs; Beverly, Mass.) for 14 hours at 4° C.; okadaic acid was added (1 μM final concentration; Roche Diagnostics) to inhibit the phosphatase. Purified ACC1 was exchanged into 25 mM Tris, pH 7.5, 2 mM TCEP, 10% glycerol, 0.5 M NaCl by 6 hour dialysis at 4° C. Aliquots were prepared and frozen at −80° C.
[2] Measurement of rhACC1 inhibition. hACC1 was assayed in a Costar #3676 (Costar, Cambridge, Mass.) 384-well plate using the Transcreener ADP detection FP assay kit (Bellbrook Labs, Madison, Wis.) using the manufacturer's recommended conditions for a 50 μM ATP reaction. The final conditions for the assay were 50 mM HEPES, pH 7.2, 10 mM MgCl2, 7.5 mM tripotassium citrate, 2 mM DTT, 0.1 mg/mL BSA, 30 μM acetyl-CoA, 50 μM ATP, and 10 mM KHCO3 Typically, a 10 μl reaction was run for 120 min at 25° C., and 10 μl of Transcreener stop and detect buffer was added and the combination incubated at room temp for an additional 1 hour. The data was acquired on a Envision Fluorescence reader (Perkinelmer) using a 620 excitation Cy5 FP general dual mirror, 620 excitation Cy5 FP filter, 688 emission (S) and a 688 (P) emission filter.
as §2

Row | IC50 [1] | IC50 [2] | Structure (SMILES)
1 | 1.4 nM | 6 nM | CC(C)n1ncc2c1C(=O)CC1(CCN(C(=O)c3ccc4c(C(N)=O)c[nH]c4c3)CC1)C2 [Example 1, 6-[(1-isopropyl-7-oxo-1,4,6,7-tetrahydro-1′H-spiro[indazole-5,4′-piperidin]-1′-yl)carbonyl]-1H-indole-3-carboxamide]
2 | 3.1 nM | 7.9 nM | CC(C)n1ncc2c1C(=O)CC1(CCN(C(=O)c3ccc4[nH]nc(C(N)=O)c4c3)CC1)C2 [Example 2, 5-[(1-isopropyl-7-oxo-1,4,6,7-tetrahydro-1′H-spiro[indazole-5,4′-piperidin]-1′-yl)carbonyl]-1H-indazole-3-carboxamide]
3 | 13 nM | 32 nM | CC(C)n1ncc2c1C(=O)CC1(CCN(C(=O)c3cnc4c(C(N)=O)c[nH]c4c3)CC1)C2 [Example 3, 6-[(1-isopropyl-7-oxo-1,4,6,7-tetrahydro-1′H-spiro[indazole-5,4′-piperidin]-1′-yl)carbonyl]-1H-pyrrolo[3,2-b]pyridine-3-carboxamide]
4 | 2.9 nM | 6.5 nM | CC(C)n1ncc2c1C(=O)CC1(CCN(C(=O)c3ccc4c(C(N)=O)n[nH]c4c3)CC1)C2 [Example 4]
5 | 5.8 nM | 17 nM | CC(C)n1ncc2c1C(=O)CC1(CCN(C(=O)c3cnc4[nH]cc(C(N)=O)c4c3)CC1)C2 [Example 5]
6 | 1.6 nM | 5.6 nM | CC(C)n1ncc2c1C(=O)CC1(CCN(C(=O)c3ccc4[nH]cc(C(N)=O)c4c3)CC1)C2 [Example 7]
7 | 3.3 nM | 17 nM | CC(C)n1ncc2c1C(=O)CC1(CCN(C(=O)c3ccc4[nH]c(N)nc4c3)CC1)C2 [Example 8]
8 | 2.9 nM | 8.4 nM | CNC(=O)c1n[nH]c2ccc(C(=O)N3CCC4(CC3)CC(=O)c3c(cnn3C(C)C)C4)cc12 [Example 9]
9 | 2.7 nM | 6.1 nM | CCNC(=O)c1n[nH]c2ccc(C(=O)N3CCC4(CC3)CC(=O)c3c(cnn3C(C)C)C4)cc12 [Example 10]
10 | 5.5 nM | 14 nM | CC(C)n1ncc2c1C(=O)CC1(CCN(C(=O)c3ccc4[nH]nc(C(=O)NCC(F)(F)F)c4c3)CC1)C2 [Example 11]
11 | 3 nM | 13 nM | CC(C)n1ncc2c1C(=O)CC1(CCN(C(=O)c3ccc4cc(C(N)=O)[nH]c4c3)CC1)C2 [Example 12]
12 | 1.5 nM | 2.4 nM | CNc1ccc2ccc(C(=O)N3CCC4(CC3)CC(=O)c3c(cnn3C(C)C)C4)cc2n1 [Example 13]
13 | 2.6 nM | 14 nM | CC(C)n1ncc2c1C(=O)CC1(CCN(C(=O)c3ccc4nc(N)ccc4c3)CC1)C2 [Example 15]
14 | 3.1 nM | 6.7 nM | CC(C)n1ncc2c1C(=O)CC1(CCN(C(=O)c3cnc4c(Cl)c[nH]c4c3)CC1)C2 [Example 16]
15 | 11 nM | 19 nM | CC(C)n1ncc2c1C(=O)CC1(CCN(C(=O)c3ccc4c(C#N)n[nH]c4c3)CC1)C2 [Example 17]
16 | 22 nM | 33 nM | CC(C)n1ncc2c1C(=O)CC1(CCN(C(=O)c3cnc4[nH]nc(C(N)=O)c4c3)CC1)C2 [Example 18, 5-[(1-isopropyl-7-oxo-1,4,6,7-tetrahydro-1′H-spiro[indazole-5,4′-piperidin]-1′-yl)carbonyl]-1H-pyrazolo[3,4-b]pyridine-3-carboxamide]
17 | 15 nM | 63 nM | CC(C)n1ncc2c1C(=O)CC1(CCN(C(=O)c3cnc4[nH]c(C(N)=O)cc4c3)CC1)C2 [Example 19, 5-[(1-isopropyl-7-oxo-1,4,6,7-tetrahydro-1′H-spiro[indazole-5,4′-piperidin]-1′-yl)carbonyl]-1H-pyrrolo[2,3-b]pyridine-2-carboxamide]
18 | 3 nM | 13 nM | CNc1nc2cc(C(=O)N3CCC4(CC3)CC(=O)c3c(cnn3C(C)C)C4)ccc2[nH]1 [Example 20, 1-isopropyl-1′-{[2-(methylamino)-1H-benzimidazol-5-yl]carbonyl}-1,4-dihydrospiro[indazole-5,4′-piperidin]-7(6H)-one]
19 | 6.7 nM | 47 nM | CC(C)n1ncc2c1C(=O)CC1(CCN(C(=O)c3ccc4[nH]c(C(N)=O)nc4c3)CC1)C2 [Example 21, 5-[(1-isopropyl-7-oxo-1,4,6,7-tetrahydro-1′H-spiro[indazole-5,4′-piperidin]-1′-yl)carbonyl]-1H-benzimidazole-2-carboxamide]
20 | 6.9 nM | 30 nM | COc1cc2cc(C(=O)N3CCC4(CC3)CC(=O)c3c(cnn3C(C)C)C4)cnc2cc1C(N)=O [Example 22, 3-[(1-isopropyl-7-oxo-1,4,6,7-tetrahydro-1′H-spiro[indazole-5,4′-piperidin]-1′-yl)carbonyl]-6-methoxyquinoline-7-carboxamide]
21 | 15 nM | 32 nM | CC(C)n1ncc2c1C(=O)CC1(CCN(C(=O)c3cnc4c(C#N)c[nH]c4c3)CC1)C2 [Example 23, 6-[(1-isopropyl-7-oxo-1,4,6,7-tetrahydro-1′H-spiro[indazole-5,4′-piperidin]-1′-yl)carbonyl]-1H-pyrrolo[3,2-b]pyridine-3-carbonitrile]
22 | 20 nM | 43 nM | CC(C)n1ncc2c1C(=O)CC1(CCN(C(=O)c3cnc4ccc(OCC(N)=O)cc4c3)CC1)C2 [Example 24, 2-({3-[(1-isopropyl-7-oxo-1,4,6,7-tetrahydro-1′H-spiro[indazole-5,4′-piperidin]-1′-yl)carbonyl]quinolin-6-yl}oxy)acetamide]
23 | 10 nM | 12 nM | CC(C)n1ncc2c1C(=O)CC1(CCN(C(=O)c3ccc4ccc(N)nc4c3)CC1)C2 [Example 25, 1′-[(2-aminoquinolin-7-yl)carbonyl]-1-isopropyl-1,4-dihydrospiro[indazole-5,4′-piperidin]-7(6H)-one]
24 | 2.1 nM | 7.4 nM | CC(C)(C)n1ncc2c1C(=O)CC1(CCN(C(=O)c3ccc4[nH]nc(C(N)=O)c4c3)CC1)C2 [Example 26]
25 | 1.7 nM | 8.6 nM | CC(C)(C)n1cc2c(n1)C(=O)CC1(CCN(C(=O)c3ccc4c(C(N)=O)n[nH]c4c3)CC1)C2 [Example 29]
26 | 2.6 nM | 9.4 nM | CC(C)(C)n1cc2c(n1)C(=O)CC1(CCN(C(=O)c3cnc4[nH]cc(C(N)=O)c4c3)CC1)C2 [Example 30]
